According to patent US9505786B2, “Substituted annulated triazines and use thereof” (BAYER INTELLECTUAL PROPERTY GMBH, priority 2012, dated 2016):

test system: recombinant guanylate cyclase reporter cell line; experiment: Effect on a recombinant guanylate cyclase reporter cell line; assay type: cell-based
Procedure: B-2. Effect on a Recombinant Guanylate Cyclase Reporter Cell Line
The cellular activity of the compounds according to the invention is determined using a recombinant guanylate cyclase reporter cell line, as described in F. Wunder et al., Anal. Biochem. 339, 104-112 (2005).

SMILES | MEC (minimum effective concentration) [nM]
CC1(C)C(=O)Nc2nc(-c3nn(Cc4ccccc4F)c4ncc(F)cc34)nc(CNC(=O)C3CC3)c21 [Example 56, N-({2-[5-Fluoro-1-(2-fluorobenzyl)-1H-pyrazolo[3,4-b]pyridin-3-yl]-5,5-dimethyl-6-oxo-6,7-dihydro-5H-pyrrolo[2,3-d]pyrimidin-4-yl}methyl)cyclopropanecarboxamide] | 30
CC(C)(O)CCc1nc(-c2nn(Cc3ccccc3F)c3ncccc23)nc2c1C(C)(C)C(=O)N2 [Example 59, 2-[1-(2-Fluorobenzyl)-1H-pyrazolo[3,4-b]pyridin-3-yl]-4-(3-hydroxy-3-methylbutyl)-5,5-dimethyl-5,7-dihydro-6H-pyrrolo[2,3-d]pyrimidin-6-one] | 300
CC1(CC2CC2)C(=O)Nc2nc(-c3nn(Cc4ccccc4F)c4ncc(F)cc34)nnc21 (racemic) [Example 5-1, 7-(Cyclopropylmethyl)-3-[5-fluoro-1-(2-fluorobenzyl)-1H-pyrazolo[3,4-b]pyridin-3-yl]-7-methyl-5,7-dihydro-6H-pyrrolo[2,3-e][1,2,4]triazin-6-one] | 100
CC(C)(C)OC(=O)C#Cc1nc(-c2nn(Cc3ccccc3F)c3ncccc23)nc2c1C(C)(C)C(=O)N2 [Example 50, tert-Butyl 3-{2-[1-(2-fluorobenzyl)-1H-pyrazolo[3,4-b]pyridin-3-yl]-5,5-dimethyl-6-oxo-6,7-dihydro-5H-pyrrolo[2,3-d]pyrimidin-4-yl}prop-2-ynoate] | 300
CC1(C)C(=O)Nc2nc(-c3nn(Cc4ccccc4F)c4ncccc34)nc(Cl)c21 [Example 60, 4-Chloro-2-[1-(2-fluorobenzyl)-1H-pyrazolo[3,4-b]pyridin-3-yl]-5,5-dimethyl-5,7-dihydro-6H-pyrrolo[2,3-d]pyrimidin-6-one] | 300
CCC1(C)C(=O)Nc2nc(-c3nn(Cc4ccccc4F)c4ncc(F)cc34)nnc21 (racemic) [Example 7-1, 7-Ethyl-3-[5-fluoro-1-(2-fluorobenzyl)-1H-pyrazolo[3,4-b]pyridin-3-yl]-7-methyl-5,7-dihydro-6H-pyrrolo[2,3-e][1,2,4]triazin-6-one] | 100
CC1(CC2CC2)C(=O)Nc2nc(-c3nn(Cc4ccccc4F)c4ncc(F)cc34)nnc21 (racemic) [Example 5-2, 7-(Cyclopropylmethyl)-3-[5-fluoro-1-(2-fluorobenzyl)-1H-pyrazolo[3,4-b]pyridin-3-yl]-7-methyl-5,7-dihydro-6H-pyrrolo[2,3-e][1,2,4]triazin-6-one] | 300
CCC1(C)C(=O)Nc2nc(-c3nn(Cc4ccccc4F)c4ncc(F)cc34)nnc21 (racemic) [Example 7-2, 7-Ethyl-3-[5-fluoro-1-(2-fluorobenzyl)-1H-pyrazolo[3,4-b]pyridin-3-yl]-7-methyl-5,7-dihydro-6H-pyrrolo[2,3-e][1,2,4]triazin-6-one] | 100
CC1(C)C(=O)Nc2nc(-c3nn(Cc4ccccc4F)c4ncccc34)nc(C#CC(=O)O)c21 [Example 62, 3-{2-[1-(2-Fluorobenzyl)-1H-pyrazolo[3,4-b]pyridin-3-yl]-5,5-dimethyl-6-oxo-6,7-dihydro-5H-pyrrolo[2,3-d]pyrimidin-4-yl}prop-2-ynoic acid] | 30
